According to patent publication EP1997826A2, “Synthetic ligands for immunoglobulins and pharmaceutical compositions containing them” (Tecnogen S.p.A., priority 2007, dated 2008):
Like-named read-outs stand apart in the source and are kept apart here.

Legend:
[1] = tested on: male rats of the CD1 species; format: in vivo, rat; conditions: for dose inhibiting the inflammatory reaction completely: rat, intradermal; for Inhibition of skin reaction (%): intradermal with IgE ascitic fluid
Experimental: Passive cutaneous anaphylaxis in the rat was induced according to the procedure described by Ovary et al., 1952, Int. Arch. Allergy Appl. Immunol. 3:293-301. Rat ascitic fluid containing specific IgE against the ovalbumin antigen was injected in the shaved back of male rats of the CD1 species (Charles River, Italy). Ascitic fluid at different dilutions (from 20 to 20 000 times in PBS) was applied by intradermal injections at a volume of 50 µl, permitting the IgEs present in the ascitic fluid to bind to the FcεRs of the local mast cells, sensitizing them. On the next day, 1 mg of ovalbumin and the dye Evans Blue at a concentration of 2.0%, dissolved in 1 ml of PBS, were injected intravenously. After 30 minutes, the appearance, on the rats' backs, of stained areas in the dermis (wheals) with extent and intensity of staining proportional to the quantity of antigen-specific IgEs injected with the ascitic fluid, was observed. The experiment included a negative control, represented by the intradermal injection of 50 µl of PBS without ascitic fluid, and there was no corresponding appearance of staining. The rats were sacrificed and comparative evaluation of the dimensions and intensity of coloration of the wheals that developed was carried out by densitometric analysis of colour photographs of the animals taken with a single camera, a single film and in the same conditions of exposure times, lighting and orientation. The densitometric analyses were performed with the aid of the IMAGE PRO-PLUS software (Media Cybernetics, Inc.). On the basis of the results obtained in the IgE-FcεR linear binding assay (absence of inhibitors), selecting as reference point the value of dilution of the ascitic fluid at which the most intense inflammatory reaction was observed (the wheal with most intense staining, and consequently the maximum signal on the densitometer), an assay of inhibition of the allergic reaction was performed using peptide lB and the comparative peptide. For this purpose, 25 µl of ascitic fluid containing IgE suitably diluted was incubated with 25 µl of PBS containing different doses of the test compounds (0.025, 0.25, 2.5, 25, 250 and 2500 µg). A single rat was used for each compound. The back of each rat was shaved and was then subdivided into 8 sections by making marks to delimit the zones in which the injections were made. The mixture (50 µl) containing the ascitic fluid and the compounds at the various doses was administered intradermally at each selected point. An injection of 25 µl of ascitic fluid suitably diluted and incubated with 25 µl of PBS was used as the positive control, and 50 µl of PBS was used as the negative control. After 24 hours, the antigen was injected together with the Evans Blue dye as previously described and thirty minutes later, corresponding to the injection sites on the rats' backs, the appearance of coloured wheals was observed, with intensity and dimensions markedly less than in the zones in which higher concentrations of compounds had been applied.

[2] = tested on: immunoglobulins (IgG, IgM, IgA and IgE); test: affinity chromatography of raw murine serum on peptide immobilized on CH-Sepharose-4B; format: binding; conditions: Western Blot, albumin not retained
[3] = tested on: immunoglobulins (IgG, IgM, IgA and IgE); test: affinity chromatography of raw human serum on peptide immobilized on CH-Sepharose-4B; format: binding; conditions: Western Blot, albumin not retained
Experimental: The peptide of formula (IB) prepared in Example 1 (10 mg) was dissolved in 5 ml of aqueous solution of sodium bicarbonate 0.1 M, NaCl 0.5 M, pH 8.5 and then added to 0.5 g of activated resin CH-Sepharose-4B (Amersham Biosciences, Uppsala, Sweden, Cat. No. 17-0490-01), a preactivated support for affinity chromatography for the direct coupling of peptides and proteins. The suspension was stirred for 24 hours and the extent of coupling was monitored by taking samples of the reaction mixture, at various times, followed by analysis by RP-HPLC.
Approximately 90-95% of the initial peptide is found to be bound covalently to the resin after 24 hours. The derivatized resin is incubated with 0.1 M Tris, pH 8.5 to block any sites of the resin that are still reactive, and is then packed in a glass column 100 x 0.6 cm I.D. with a variable piston (OMNIFIT, Cat. No. 006CC-06-10-FF).
For the purification of immunoglobulins from serum, the column was equilibrated with a buffer 50 mM Bis-Tris (Sigma, Cat. No. B9754), pH 6.5, to a flow of 1 ml/min, monitoring the eluent at 280 nm. Raw rabbit serum (Sigma, Cat, No. R9133) was loaded in the column and, after elution of the material that was not bound, the eluent was changed to acetic acid 0.1 M, pH 3.0, for elution of the adsorbed material. […]

[4] = molar value printed in brackets

Molecule | dose inhibiting the inflammatory reaction completely [1] | dose inhibiting the inflammatory reaction completely [1, 4] | retention of immunoglobulins by the peptide column [2] | Inhibition of skin reaction (%) ([1]; Dose of Peptide 0.025 (µg/ml)) | Inhibition of skin reaction (%) ([1]; Dose of Peptide 0.25 (µg/ml)) | Inhibition of skin reaction (%) ([1]; Dose of Peptide 2.5 (µg/ml)) | Inhibition of skin reaction (%) ([1]; Dose of Peptide 25 (µg/ml)) | Inhibition of skin reaction (%) ([1]; Dose of Peptide 250 (µg/ml)) | Inhibition of skin reaction (%) ([1]; Dose of Peptide 2500 (µg/ml)) | activity greater than the activity of the comparative peptide ([1]; rat passive cutaneous anaphylaxis) | retention of immunoglobulins by the peptide column [3]
C[C@H](O)[C@@H](NC(=O)[C@H](N)CCCNC(=N)N)C(=O)N[C@H](Cc1ccc(O)cc1)C(=O)NCCCC[C@H](NC(=O)[C@@H](Cc1ccc(O)cc1)NC(=O)[C@H](NC(=O)[C@H](N)CCCNC(=N)N)[C@H](C)O)C(=O)NCCCC[C@H](NC(=O)[C@H](CCCCNC(=O)[C@@H](Cc1ccc(O)cc1)NC(=O)[C@H](NC(=O)[C@H](N)CCCNC(=N)N)[C@H](C)O)NC(=O)[C@@H](Cc1ccc(O)cc1)NC(=O)[C@H](NC(=O)[C@H](N)CCCNC(=N)N)[C@H](C)O)C(=O)NCC(=O)O [Comparative peptide, (H-D-Arg-D-Thr-D-Tyr-)4-L-Lys2-L-Lys-Gly-OH, reference compound] | 25 µg | 11.6 nmol |  |  |  |  |  |  |  |  | 
(H-L-Cys(p-MeOBzl)-D-Arg-D-Thr-D-Tyr)4-L-Lys2-L-Lys-L-Lys-OH [Peptide IB] | 2.5 µg | approx. 0.8 nmoles | able to retain the immunoglobulins (IgG, IgM, IgA and IgE) | 35% | 60% | 100% | 100% | 100% | 100% | approx. 15 times | able to retain the immunoglobulins (IgG, IgM, IgA and IgE)
